Reference: PubChem BioAssay (NCI)
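Cells were grown in 96-well plates and exposed to each compound for 48 hours at five concentrations; endpoints were interpolated linearly between bracketing concentrations, or set to the highest concentration if not reached. The concentration for 50% growth inhibition is given as GI50. At the TGI there is no net growth.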

Columns and labels:
Test in all cases: DTP human tumour cell line panel, 48 h
OVCAR-3 ovarian = tested on: OVCAR-3 ovarian
DU-145 prostate = tested on: DU-145 prostate
SF-268 CNS = tested on: SF-268 CNS
IGROV1 ovarian = tested on: IGROV1 ovarian
COLO 205 colon = tested on: COLO 205 colon
RPMI-8226 leukemia = tested on: RPMI-8226 leukemia
U251 CNS = tested on: U251 CNS
CAKI-1 renal = tested on: CAKI-1 renal
OVCAR-5 ovarian = tested on: OVCAR-5 ovarian
TK-10 renal = tested on: TK-10 renal
PC-3 prostate = tested on: PC-3 prostate
LOX IMVI melanoma = tested on: LOX IMVI melanoma
OVCAR-4 ovarian = tested on: OVCAR-4 ovarian
HOP-92 NSCLC = tested on: HOP-92 NSCLC
MALME-3M melanoma = tested on: MALME-3M melanoma
SK-MEL-2 melanoma = tested on: SK-MEL-2 melanoma
BT-549 breast = tested on: BT-549 breast
NCI-H522 lung = tested on: NCI-H522 lung
SNB-75 CNS = tested on: SNB-75 CNS
A549 NSCLC = tested on: A549 NSCLC
HCT-15 colon = tested on: HCT-15 colon
SR leukemia = tested on: SR leukemia
UACC-257 melanoma = tested on: UACC-257 melanoma
ACHN renal = tested on: ACHN renal
MOLT-4 leukemia = tested on: MOLT-4 leukemia
NCI-H226 lung = tested on: NCI-H226 lung
A498 renal = tested on: A498 renal
CCRF-CEM leukemia = tested on: CCRF-CEM leukemia
HCT-116 colon = tested on: HCT-116 colon
NCI/ADR-RES ovarian = tested on: NCI/ADR-RES ovarian
SF-539 CNS = tested on: SF-539 CNS
UACC-62 melanoma = tested on: UACC-62 melanoma
HT29 colon = tested on: HT29 colon
HS 578T breast = tested on: HS 578T breast
EKVX NSCLC = tested on: EKVX NSCLC
SK-MEL-5 melanoma = tested on: SK-MEL-5 melanoma
MDA-MB-435 = tested on: MDA-MB-435
RXF 393 renal = tested on: RXF 393 renal
SF-295 CNS = tested on: SF-295 CNS
MDA-MB-231 breast = tested on: MDA-MB-231 breast
SNB-19 CNS = tested on: SNB-19 CNS
NCI-H23 lung = tested on: NCI-H23 lung
K-562 leukemia = tested on: K-562 leukemia
NCI-H460 lung = tested on: NCI-H460 lung
SN12C renal = tested on: SN12C renal
SW-620 colon = tested on: SW-620 colon
HCC-2998 colon = tested on: HCC-2998 colon
UO-31 renal = tested on: UO-31 renal
786-0 renal = tested on: 786-0 renal
M14 melanoma = tested on: M14 melanoma
SK-MEL-28 melanoma = tested on: SK-MEL-28 melanoma
MCF7 breast = tested on: MCF7 breast
HOP-62 NSCLC = tested on: HOP-62 NSCLC
SK-OV-3 ovarian = tested on: SK-OV-3 ovarian
KM12 colon = tested on: KM12 colon
OVCAR-8 ovarian = tested on: OVCAR-8 ovarian
HL-60(TB) leukemia = tested on: HL-60(TB) leukemia
T-47D breast = tested on: T-47D breast
MDA-N = tested on: MDA-N

COc1cc2c(Oc3ccc4[nH]c(C)cc4c3F)ncnc2cc1OCCCN1CCCC1
GI50 (OVCAR-3 ovarian): 2.25 µM | TGI (OVCAR-3 ovarian): 7.56 µM | GI50 (DU-145 prostate): 4.66 µM | TGI (DU-145 prostate): 16 µM | GI50 (SF-268 CNS): 4.06 µM | TGI (SF-268 CNS): 16.6 µM | GI50 (IGROV1 ovarian): 1.45 µM | TGI (IGROV1 ovarian): 14.2 µM | GI50 (COLO 205 colon): 1.83 µM | TGI (COLO 205 colon): 3.58 µM | GI50 (RPMI-8226 leukemia): 3.63 µM | TGI (RPMI-8226 leukemia): 10.7 µM | GI50 (U251 CNS): 1.43 µM | TGI (U251 CNS): 6.99 µM | GI50 (CAKI-1 renal): 2.79 µM | TGI (CAKI-1 renal): 13.9 µM | GI50 (OVCAR-5 ovarian): 4.72 µM | TGI (OVCAR-5 ovarian): 19.5 µM | GI50 (TK-10 renal): 1.57 µM | TGI (TK-10 renal): 6.98 µM | GI50 (PC-3 prostate): 4.63 µM | TGI (PC-3 prostate): 17.5 µM | GI50 (LOX IMVI melanoma): 1.62 µM | TGI (LOX IMVI melanoma): 4.31 µM | GI50 (OVCAR-4 ovarian): 1.38 µM | TGI (OVCAR-4 ovarian): 8.99 µM | GI50 (HOP-92 NSCLC): 0.761 µM | TGI (HOP-92 NSCLC): 5.2 µM | GI50 (MALME-3M melanoma): 2.48 µM | TGI (MALME-3M melanoma): 7.02 µM | GI50 (SK-MEL-2 melanoma): 3.84 µM | TGI (SK-MEL-2 melanoma): 10.3 µM | GI50 (BT-549 breast): 2.98 µM | TGI (BT-549 breast): 10.8 µM | GI50 (NCI-H522 lung): 2.33 µM | TGI (NCI-H522 lung): 5.99 µM | GI50 (SNB-75 CNS): 0.959 µM | TGI (SNB-75 CNS): 5.09 µM | GI50 (A549 NSCLC): 3.07 µM | TGI (A549 NSCLC): 13 µM | GI50 (HCT-15 colon): 3.16 µM | TGI (HCT-15 colon): 15.2 µM | GI50 (SR leukemia): 3.06 µM | TGI (SR leukemia): 15 µM | GI50 (UACC-257 melanoma): 1.75 µM | TGI (UACC-257 melanoma): 3.53 µM | GI50 (ACHN renal): 1.96 µM | TGI (ACHN renal): 14.9 µM | GI50 (MOLT-4 leukemia): 2.55 µM | TGI (MOLT-4 leukemia): 13.8 µM | GI50 (NCI-H226 lung): 0.675 µM | TGI (NCI-H226 lung): 9.15 µM | GI50 (A498 renal): 0.129 µM | TGI (A498 renal): 0.72 µM | GI50 (CCRF-CEM leukemia): 3.74 µM | TGI (CCRF-CEM leukemia): 16.8 µM | GI50 (HCT-116 colon): 3.96 µM | TGI (HCT-116 colon): 14.7 µM | GI50 (NCI/ADR-RES ovarian): 9.69 µM | TGI (NCI/ADR-RES ovarian): 24.7 µM | GI50 (SF-539 CNS): 0.46 µM | TGI (SF-539 CNS): 2.47 µM | GI50 (UACC-62 melanoma): 2.77 µM | TGI (UACC-62 melanoma): 6.73 µM | GI50 (HT29 colon): 1.7 µM | TGI (HT29 colon): 4.09 µM | GI50 (HS 578T breast): 1.32 µM | TGI (HS 578T breast): 6.89 µM | GI50 (EKVX NSCLC): 6.07 µM | TGI (EKVX NSCLC): 22.1 µM | GI50 (SK-MEL-5 melanoma): 1.62 µM | TGI (SK-MEL-5 melanoma): 3.17 µM | GI50 (MDA-MB-435): 2.75 µM | TGI (MDA-MB-435): 8.98 µM | GI50 (RXF 393 renal): 1.07 µM | TGI (RXF 393 renal): 3.31 µM | GI50 (SF-295 CNS): 2.81 µM | TGI (SF-295 CNS): 13.2 µM | GI50 (MDA-MB-231 breast): 2.54 µM | TGI (MDA-MB-231 breast): 7.58 µM | GI50 (SNB-19 CNS): 6.47 µM | TGI (SNB-19 CNS): 22.2 µM | GI50 (NCI-H23 lung): 5.17 µM | TGI (NCI-H23 lung): 22.7 µM | GI50 (K-562 leukemia): 2.15 µM | TGI (K-562 leukemia): 7.44 µM | GI50 (NCI-H460 lung): 3.29 µM | TGI (NCI-H460 lung): 11.6 µM | GI50 (SN12C renal): 3.84 µM | TGI (SN12C renal): 19.9 µM | GI50 (SW-620 colon): 3.77 µM | TGI (SW-620 colon): 14.7 µM | GI50 (HCC-2998 colon): 3.77 µM | TGI (HCC-2998 colon): 11.8 µM | GI50 (UO-31 renal): 0.544 µM | TGI (UO-31 renal): 5.64 µM | GI50 (786-0 renal): 3.57 µM | TGI (786-0 renal): 13.3 µM | GI50 (M14 melanoma): 1.88 µM | TGI (M14 melanoma): 3.78 µM | GI50 (SK-MEL-28 melanoma): 2.57 µM | TGI (SK-MEL-28 melanoma): 6.68 µM | GI50 (MCF7 breast): 3.79 µM | TGI (MCF7 breast): 18.5 µM | GI50 (HOP-62 NSCLC): 2.03 µM | TGI (HOP-62 NSCLC): 10.5 µM | GI50 (SK-OV-3 ovarian): 5.53 µM | TGI (SK-OV-3 ovarian): 19 µM | GI50 (KM12 colon): 4.33 µM | TGI (KM12 colon): 15.3 µM | GI50 (OVCAR-8 ovarian): 3.88 µM | TGI (OVCAR-8 ovarian): 15.6 µM | GI50 (HL-60(TB) leukemia): 2.04 µM | TGI (HL-60(TB) leukemia): 4.37 µM | GI50 (T-47D breast): 1.8 µM | TGI (T-47D breast): 4.72 µM

Cc1cn(CC2=NCC(O)CN2)c(=O)[nH]c1=O (stereo unspecified)
TGI (OVCAR-3 ovarian): > 100 µM | TGI (DU-145 prostate): > 100 µM | TGI (SF-268 CNS): > 100 µM | TGI (IGROV1 ovarian): > 100 µM | TGI (COLO 205 colon): > 100 µM | TGI (RPMI-8226 leukemia): > 100 µM | TGI (U251 CNS): > 100 µM | TGI (CAKI-1 renal): > 100 µM | TGI (OVCAR-5 ovarian): > 100 µM | TGI (TK-10 renal): > 100 µM | TGI (PC-3 prostate): > 100 µM | TGI (LOX IMVI melanoma): > 100 µM | TGI (OVCAR-4 ovarian): > 100 µM | TGI (HOP-92 NSCLC): > 100 µM | TGI (MALME-3M melanoma): > 100 µM | TGI (SK-MEL-2 melanoma): > 100 µM | TGI (NCI-H522 lung): > 100 µM | TGI (A549 NSCLC): > 100 µM | TGI (HCT-15 colon): > 100 µM | TGI (UACC-257 melanoma): > 100 µM | TGI (ACHN renal): > 100 µM | TGI (MOLT-4 leukemia): > 100 µM | TGI (NCI-H226 lung): > 100 µM | TGI (A498 renal): > 100 µM | TGI (CCRF-CEM leukemia): > 100 µM | TGI (HCT-116 colon): > 100 µM | TGI (NCI/ADR-RES ovarian): > 100 µM | TGI (SF-539 CNS): > 100 µM | TGI (UACC-62 melanoma): > 100 µM | TGI (HT29 colon): > 100 µM | TGI (EKVX NSCLC): > 100 µM | TGI (SK-MEL-5 melanoma): > 100 µM | TGI (MDA-MB-435): > 100 µM | TGI (RXF 393 renal): > 100 µM | TGI (SF-295 CNS): > 100 µM | TGI (MDA-MB-231 breast): > 100 µM | TGI (SNB-19 CNS): > 100 µM | TGI (NCI-H23 lung): > 100 µM | TGI (K-562 leukemia): > 100 µM | TGI (NCI-H460 lung): > 100 µM | TGI (SN12C renal): > 100 µM | TGI (SW-620 colon): > 100 µM | TGI (HCC-2998 colon): > 100 µM | TGI (UO-31 renal): > 100 µM | TGI (786-0 renal): > 100 µM | TGI (M14 melanoma): > 100 µM | TGI (SK-MEL-28 melanoma): > 100 µM | TGI (MCF7 breast): > 100 µM | TGI (HOP-62 NSCLC): > 100 µM | TGI (SK-OV-3 ovarian): > 100 µM | TGI (MDA-N): > 100 µM | TGI (KM12 colon): > 100 µM | TGI (OVCAR-8 ovarian): > 100 µM | TGI (HL-60(TB) leukemia): > 100 µM | TGI (T-47D breast): > 100 µM
